Read-outs that look alike come from different tables or passages of the source.
Key:
[1] = target: Jak2 tyrosine kinase (Homo sapiens (Human), UniProt O60674); assay: Jak2 tyrosine kinase assay; format: biochemical
[2] = tested on: CD69 expression on B cells in human whole blood; assay: Whole blood assay of BCR-stimulated CD69 expression on B cells; format: cell-based
[3] = target: human recombinant Btk (Homo sapiens (Human), UniProt Q06187); assay: Human Recombinant Btk enzyme assay; format: biochemical; conditions: read-out: Btk IC50 value
[4] = BCR-stimulated, read-out: CD69 IC50 values
[5] = Homo sapiens, B-cell, BCR-stimulated, read-out: CD69 IC50 values

Sequence of Jak2 tyrosine kinase (O60674 whole entry): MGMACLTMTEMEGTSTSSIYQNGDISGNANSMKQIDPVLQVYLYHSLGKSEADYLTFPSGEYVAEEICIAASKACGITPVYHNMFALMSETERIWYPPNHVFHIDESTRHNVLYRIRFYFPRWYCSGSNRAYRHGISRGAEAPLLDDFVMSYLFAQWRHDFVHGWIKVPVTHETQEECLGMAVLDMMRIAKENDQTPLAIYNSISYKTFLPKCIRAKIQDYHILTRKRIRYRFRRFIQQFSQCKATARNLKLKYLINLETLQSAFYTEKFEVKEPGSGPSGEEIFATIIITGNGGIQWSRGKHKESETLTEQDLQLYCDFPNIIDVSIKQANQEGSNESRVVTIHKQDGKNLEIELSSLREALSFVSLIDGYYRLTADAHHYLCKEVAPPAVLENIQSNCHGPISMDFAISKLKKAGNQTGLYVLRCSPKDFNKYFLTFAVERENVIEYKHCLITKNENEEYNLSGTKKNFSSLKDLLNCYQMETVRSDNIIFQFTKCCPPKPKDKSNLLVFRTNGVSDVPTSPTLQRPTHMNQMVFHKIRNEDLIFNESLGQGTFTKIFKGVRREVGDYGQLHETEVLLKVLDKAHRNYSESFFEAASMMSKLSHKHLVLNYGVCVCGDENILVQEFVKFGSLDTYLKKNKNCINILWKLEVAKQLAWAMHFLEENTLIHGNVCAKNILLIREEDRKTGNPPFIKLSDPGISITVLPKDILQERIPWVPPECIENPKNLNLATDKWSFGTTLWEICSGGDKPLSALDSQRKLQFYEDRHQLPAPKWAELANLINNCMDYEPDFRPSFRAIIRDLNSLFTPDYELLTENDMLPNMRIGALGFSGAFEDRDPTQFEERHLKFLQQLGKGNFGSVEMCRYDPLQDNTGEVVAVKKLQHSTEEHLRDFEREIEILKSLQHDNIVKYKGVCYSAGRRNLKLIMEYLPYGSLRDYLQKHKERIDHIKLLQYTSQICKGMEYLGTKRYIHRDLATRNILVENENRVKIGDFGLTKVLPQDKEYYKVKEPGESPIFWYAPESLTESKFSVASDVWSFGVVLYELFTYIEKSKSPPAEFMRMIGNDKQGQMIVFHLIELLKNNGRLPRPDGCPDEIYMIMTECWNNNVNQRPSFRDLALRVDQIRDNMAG
Sequence of human recombinant Btk (Q06187 whole entry): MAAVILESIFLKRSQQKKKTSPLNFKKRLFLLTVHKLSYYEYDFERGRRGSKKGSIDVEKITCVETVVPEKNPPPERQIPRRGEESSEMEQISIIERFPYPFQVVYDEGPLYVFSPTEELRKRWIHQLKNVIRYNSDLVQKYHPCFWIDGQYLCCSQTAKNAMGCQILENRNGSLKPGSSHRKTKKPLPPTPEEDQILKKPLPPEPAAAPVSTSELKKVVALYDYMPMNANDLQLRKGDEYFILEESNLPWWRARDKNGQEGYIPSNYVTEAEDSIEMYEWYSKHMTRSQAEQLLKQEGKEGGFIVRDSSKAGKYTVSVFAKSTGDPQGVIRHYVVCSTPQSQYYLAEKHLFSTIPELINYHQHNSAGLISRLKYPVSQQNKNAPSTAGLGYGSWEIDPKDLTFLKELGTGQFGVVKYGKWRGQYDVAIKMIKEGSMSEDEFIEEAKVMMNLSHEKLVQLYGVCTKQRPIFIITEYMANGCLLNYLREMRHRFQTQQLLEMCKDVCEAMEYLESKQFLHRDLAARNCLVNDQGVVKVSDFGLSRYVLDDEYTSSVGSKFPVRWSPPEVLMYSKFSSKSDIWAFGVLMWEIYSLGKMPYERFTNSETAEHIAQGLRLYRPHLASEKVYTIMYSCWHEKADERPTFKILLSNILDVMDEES

IC50 [1]	IC50 [2, 4]	SMILES	also measured
	56 nM	Cc1c(-c2c(F)cc(C(N)=O)c3[nH]c4cc(C(C)(C)O)ccc4c23)cccc1-n1c(=O)c2cccc(F)c2n(C)c1=O (atropisomer, axis not shown) [Example 18, 3-Fluoro-4-(3-(S)-(8-fluoro-1-methyl-2,4-dioxo-1,2-dihydroquinazolin-3(4H)-yl)-2-methylphenyl)-7-(2-hydroxypropan-2-yl)-9H-carbazole-1-carboxamide]	
7500 nM	160 nM	Cc1c(-c2c(Cl)cc(C(N)=O)c3[nH]c4c(c23)CC[C@H](C(C)(C)O)C4)cccc1-n1c(=O)c2cccc(F)c2n(C)c1=O (atropisomer, axis not shown) [Example 26, 6-Chloro-5-(R)-(3-(S)-(8-fluoro-1-methyl-2,4-dioxo-1,2-dihydroquinazolin-3(4H)-yl)-2-methylphenyl)-2-(S)-(2-hydroxypropan-2-yl)-2,3,4,9-tetrahydro-1H-carbazole-8-carboxamide]	
	190 nM	Cc1c(-c2c(Cl)cc(C(N)=O)c3[nH]c4cc(C(C)(C)O)ccc4c23)cccc1-n1c(=O)c2cccc(F)c2n(C)c1=O (single isomer, unassigned) [Example 1]	
1900 nM		[2H]C([2H])([2H])n1c(=O)n(-c2cccc(-c3c(Cl)cc(C(N)=O)c4[nH]c5cc(C(C)(C)O)ccc5c34)c2C)c(=O)c2cccc(F)c21 (single isomer, unassigned) [Example 12]	IC50 [2, 5]: 190 nM
9000 nM	44 nM	Cc1c(-c2c(Cl)cc(C(N)=O)c3[nH]c4c(c23)CC[C@H](C(C)(C)O)C4)cccc1-n1c(=O)[nH]c2c(F)cccc2c1=O (single isomer, unassigned) [Example 55]	
> 2000 nM	140 nM	Cc1c(-c2c(Cl)cc(C(N)=O)c3[nH]c4c(c23)CC[C@H](C(C)(C)O)C4)cccc1-n1c(=O)[nH]c2c(F)cccc2c1=O (single isomer, unassigned) [Example 56]	
> 2000 nM		Cc1c(-c2c(F)cc(C(N)=O)c3[nH]c4c(c23)CC[C@H](C(C)(C)O)C4)cccc1-n1c(=O)cc2c(Cl)cccn2c1=O (single isomer, unassigned) [Example 64]	
	17 nM	Cc1c(-c2c(F)cc(C(N)=O)c3[nH]c4cc(C(C)(C)O)ccc4c23)cccc1-n1c(=O)[nH]c2c(F)cccc2c1=O [Example 21, 3-Fluoro-4-(R)-(3-(R)-(8-fluoro-2,4-dioxo-1,2-dihydroquinazolin-3(4H)-yl)-2-methylphenyl)-7-(2-hydroxypropan-2-yl)-9H-carbazole-1-carboxamide]	
	120 nM	Cc1c(-c2c(F)cc(C(N)=O)c3[nH]c4cc(C(C)(C)O)ccc4c23)cccc1-n1c(=O)[nH]c2c(F)cccc2c1=O [Example 22, 3-Fluoro-4-(R)-(3-(S)-(8-fluoro-2,4-dioxo-1,2-dihydroquinazolin-3(4H)-yl)-2-methylphenyl)-7-(2-hydroxypropan-2-yl)-9H-carbazole-1-carboxamide]	
	21 nM	Cc1c(-c2c(Cl)cc(C(N)=O)c3[nH]c4cc(C(C)(C)O)ccc4c23)cccc1-n1c(=O)ccn(-c2ccc(F)cc2)c1=O [Example 24, 3-Chloro-4-(R)-(3-(3-(4-fluorophenyl)-2,6-dioxo-2,3-dihydropyrimidin-1(6H)-yl)-2-methylphenyl)-7-(2-hydroxypropan-2-yl)-9H-carbazole-1-carboxamide]	
> 2000 nM		Cc1c(-c2c(Cl)cc(C(N)=O)c3[nH]c4c(c23)CC[C@H](C(C)(C)O)C4)cccc1-n1c(=O)c2cccc(F)c2n(C)c1=O [Example 25, 6-Chloro-5-(3-(8-fluoro-1-methyl-2,4-dioxo-1,2-dihydroquinazolin-3(4H)-yl)-2-methylphenyl)-2-(S)-(2-hydroxypropan-2-yl)-2,3,4,9-tetrahydro-1H-carbazole-8-carboxamide]	
	24 nM	Cc1c(-c2c(Cl)cc(C(N)=O)c3[nH]c4cc(C(C)(C)O)ccc4c23)cccc1-n1c(=O)cc2c(Cl)cccn2c1=O [Example 33, 3-Chloro-4-(R)-(3-(S)-(5-chloro-1,3-dioxo-1H-pyrido[1,2-c]pyrimidin-2(3H)-yl)-2-methylphenyl)-7-(2-hydroxypropan-2-yl)-9H-carbazole-1-carboxamide]	
	210 nM	Cn1c(=O)n(-c2cccc(-c3c(Cl)cc(C(N)=O)c4[nH]c5cc(C(C)(C)O)ccc5c34)c2Cl)c(=O)c2ccccc21 [Example 42, 3-Chloro-4-(2-chloro-3-(1-methyl-2,4-dioxo-1,2-dihydroquinazolin-3(4H)-yl)phenyl)-7-(2-hydroxypropan-2-yl)-9H-carbazole-1-carboxamide]	
	160 nM	Cn1c(=O)n(-c2cccc(-c3c(Cl)cc(C(N)=O)c4[nH]c5cc(C(C)(C)O)ccc5c34)c2Cl)c(=O)c2cccc(F)c21 [Example 44, 3-Chloro-4-(2-chloro-3-(8-fluoro-1-methyl-2,4-dioxo-1,2-dihydroquinazolin-3(4H)-yl)phenyl)-7-(2-hydroxypropan-2-yl)-9H-carbazole-1-carboxamide]	

Continued, molecule first:

SMILES	IC50 [1]	IC50 [2, 4]	also measured
Cc1c(-c2c(Cl)cc(C(N)=O)c3[nH]c4cc(C(C)(C)O)ccc4c23)cccc1-n1c(=O)c2cccc(F)c2n(C)c1=O (atropisomer, axis not shown) [Example 11, 3-Chloro-4-(R)-(3-(S)-(8-fluoro-1-methyl(d3)-2,4-dioxo-1,2-dihydroquinazolin-3(4H)-yl)-2-methylphenyl)-7-(2-hydroxypropan-2-yl)-9H-carbazole-1-carboxamide]	910 nM	65 nM	
Cc1c(-c2c(Cl)cc(C(N)=O)c3[nH]c4cc(C(C)(C)O)ccc4c23)cccc1-n1c(=O)c2cccc(F)c2n(C)c1=O (single isomer, unassigned) [Example 2]		90 nM	
Cc1c(-c2c(F)cc(C(N)=O)c3[nH]c4c(c23)CC[C@H](C(C)(C)O)C4)cccc1-n1c(=O)[nH]c2c(F)cccc2c1=O (single isomer, unassigned) [Example 59]			IC50 [3]: 0.9 nM
Cc1c(-c2c(F)cc(C(N)=O)c3[nH]c4c(c23)CC[C@H](C(C)(C)O)C4)cccc1-n1c(=O)cc2c(Cl)cccn2c1=O (single isomer, unassigned) [Example 65]	> 2000 nM	110 nM	
Cc1c(-c2c(F)cc(C(N)=O)c3[nH]c4c(c23)CC[C@@H](C(C)(C)O)C4)cccc1-n1c(=O)[nH]c2c(F)cccc2c1=O (single isomer, unassigned) [Example 67]			IC50 [3]: 0.49 nM
Cc1c(-c2ccc(C(N)=O)c3[nH]c4cc(C(C)(C)O)ccc4c23)cccc1-n1cnc2ccccc2c1=O [Comparative Example 75, 7-(2-Hydroxypropan-2-yl)-4-(2-methyl-3-(4-oxoquinazolin-3(4H)-yl)phenyl)-9H-carbazole-1-carboxamide, reference compound]			IC50 ([2]; Homo sapiens, B-cell, 18 h, anti-IgM + IL-4 stimulation, 18 h, read-out: CD69 IC50): 650 nM
Cc1c(-c2c(F)cc(C(N)=O)c3[nH]c4cc(C(C)(C)O)ccc4c23)cccc1-n1c(=O)c2cccc(F)c2n(C)c1=O [Example 17, 3-Fluoro-4-(3-(8-fluoro-1-methyl-2,4-dioxo-1,2-dihydroquinazolin-3(4H)-yl)-2-methylphenyl)-7-(2-hydroxypropan-2-yl)-9H-carbazole-1-carboxamide]		120 nM	
Cc1c(-c2c(F)cc(C(N)=O)c3[nH]c4cc(C(C)(C)O)ccc4c23)cccc1-n1c(=O)[nH]c2c(F)cccc2c1=O [Example 20, 3-Fluoro-4-(3-(8-fluoro-2,4-dioxo-1,2-dihydroquinazolin-3(4H)-yl)-2-methylphenyl)-7-(2-hydroxypropan-2-yl)-9H-carbazole-1-carboxamide]		16 nM	
Cc1c(-c2c(Cl)cc(C(N)=O)c3[nH]c4cc(C(C)(C)O)ccc4c23)cccc1-n1c(=O)ccn(-c2ccc(F)cc2)c1=O [Example 23, 3-Chloro-4-(3-(3-(4-fluorophenyl)-2,6-dioxo-2,3-dihydropyrimidin-1(6H)-yl)-2-methylphenyl)-7-(2-hydroxypropan-2-yl)-9H-carbazole-1-carboxamide]		98 nM	
Cc1c(-c2c(Cl)cc(C(N)=O)c3[nH]c4cc(C(C)(C)O)ccc4c23)cccc1-n1c(=O)cc2c(Cl)cccn2c1=O [Example 32, 3-Chloro-4-(R)-(3-(R)-(5-chloro-1,3-dioxo-1H-pyrido[1,2-c]pyrimidin-2(3H)-yl)-2-methylphenyl)-7-(2-hydroxypropan-2-yl)-9H-carbazole-1-carboxamide]		160 nM	
Cn1c(=O)n(-c2cccc(-c3c(Cl)cc(C(N)=O)c4[nH]c5cc(C(C)(C)O)ccc5c34)c2Cl)c(=O)c2ccccc21 [Example 43, 3-Chloro-4-(R)-(2-chloro-3-(1-methyl-2,4-dioxo-1,2-dihydroquinazolin-3(4H)-yl)phenyl)-7-(2-hydroxypropan-2-yl)-9H-carbazole-1-carboxamide]		71 nM	
Cn1c(=O)n(-c2cccc(-c3c(Cl)cc(C(N)=O)c4[nH]c5cc(C(C)(C)O)ccc5c34)c2Cl)c(=O)c2cccc(F)c21 [Example 45, 3-Chloro-4-(R)-(2-chloro-3-(8-fluoro-1-methyl-2,4-dioxo-1,2-dihydroquinazolin-3(4H)-yl)phenyl)-7-(2-hydroxypropan-2-yl)-9H-carbazole-1-carboxamide]		68 nM	
Cc1c(-c2c(F)cc(C(N)=O)c3[nH]c4cc(C(C)(C)O)ccc4c23)cccc1-n1c(=O)[nH]c2c(F)cc(F)cc2c1=O [Example 50]		120 nM	
[2H]C([2H])([2H])n1c(=O)n(-c2cccc(-c3c(F)cc(C(N)=O)c4[nH]c5cc(C(C)(C)O)ccc5c34)c2C)c(=O)c2cccc(F)c21 [Example 52]	1100 nM		
Cc1c(-c2c(F)cc(C(N)=O)c3[nH]c4cc(C(C)(C)O)ccc4c23)cccc1-n1c(=O)[nH]c2c(Cl)cccc2c1=O [Example 53]			IC50 [2, 5]: 110 nM
Cn1c(=O)n(-c2cccc(-c3c(F)cc(C(N)=O)c4[nH]c5cc(C(C)(C)O)ccc5c34)c2Cl)c(=O)c2cccc(F)c21 [Example 61]		93 nM	

Source: patent US9334290B2, “Substituted tetrahydrocarbazole and carbazole carboxamide compounds” (Bristol-Myers Squibb Company, priority 2013, dated 2016)
